According to patent US20250296917A1, “SPIRO-CYCLIC AMINE DERIVATIVES AS S1P MODULATORS” (AbbVie Deutschland GmbH & Co. KG, priority 2020, published 2025):

Experiments:
Type in all cases: cell-based
human S1PR3 = target: T1, human S1PR3 (Homo sapiens, UniProt Q99500); assay: Intracellular Ca2+ release agonist assay (Calcium 5 FLIPR), CHO-K1 cells expressing human S1PR3; settings: agonism, recombinant CHO-K1 cells with aequorin and Gq/i5; read-out: hS1PR3 pEC50 (converted)
T1 construct: host or cells: CHO-K1
Experimental: (§1) Agonist potency and efficacy were assessed by measurement of intracellular […] release. Recombinant CHO-K1 cells (Euroscreen, Brussels, Belgium) expressing human S1PR5, S1PR1, S1PR3 or S1PR4 receptors, aequorin, and GTP binding protein Gq/i5 were cultured using a medium containing nutrient mixture F-12 Ham (Sigma-Aldrich) supplemented with 10% FBS, 100 µg/mL gentamicin and equilibrated at 5% C02. 15.000 cells in […] medium were seeded into Biocoat poly-D-Lysine coated 384 well plates (Becton Dickinson #35-6663) and grown to ˜95% confluency after 24 h. Culture medium was replaced by an assay buffer consisting of HBBS with Ca2+ and Mg2+ (Invitrogen #14025-050), 20 mmol/L Hepes (Sigma-Aldrich #H-3375), 2.5 mmol/L probenecid (Sigma-Aldrich #P-8761, and 0.1% BSA (Sigma-Aldrich #A-7030) pH 7.4. The Calcium 5 no-wash FLIPR assay kit (Molecular Devices #5000625) was performed as described in the kit instructions. Cells were incubated with Calcium 5 dye for 1 h at 37° C., 5% CO2 in the dark. After 45 min adaptation to RT assessment of agonist stimulation of intracellular Ca2+ release was performed by addition of test compounds at various concentrations obtained by serial dilution. Phospho-fingolimod was used as positive control and reference agonist (intrinsic activity 100%).

[1] = target: hS1PR2 (recombinant human S1P2 receptor) (Homo sapiens, UniProt O95136); assay: hS1PR2 agonist aequorin luminescence assay (Euroscreen/Eurofins); settings: agonism, cells co-expressing apoaequorin, human Gα16 and S1P2 receptor; read-out: hS1PR2 pEC50 (converted)
Experimental: Efficacy testing for hS1PR2 was performed at Euroscreen, Eurofins, France. Cells co-expressing mitochondrial Apoaequorin, recombinant human Gα16 and S1P2 receptor (FAST-0198A) grown to mid-log phase in culture media without antibiotics were detached with PBS-EDTA, centrifuged and resuspended in assay buffer (DMEM/HAM's F12 with HEPES, without phenol red+0.1 fatty acid free BSA) at a concentration of 1×10^6 cells/ml. Cells were incubated at room temperature for at least 4 h with coelenterazine. The reference agonists S1P and […] were tested to evaluate the performance of the assay on each day of the test and determine the EC50. For agonist testing, cell suspension was mixed 1:1 with test or reference agonist in 384-well plate. The resulting emission of light was recorded using a Hamamatsu Functional Drug Screening System 6000 (FDSS) luminometer. On each day of experimentation, reference compounds were tested at several concentrations to obtain a dose-response curve and an estimated EC50 value. Reference values thus obtained for the test were compared to historical values obtained from the same receptor and used to validate the experimental session.

human S1PR1 = target: T2, human S1PR1 (Homo sapiens, UniProt P21453); assay: Intracellular Ca2+ release agonist assay (Calcium 5 FLIPR), CHO-K1 cells expressing human S1PR1; settings: agonism, recombinant CHO-K1 cells with aequorin and Gq/i5; read-out: hS1PR1 pEC50 (converted)
T2 construct: host or cells: CHO-K1
Experimental: as §1

T1 sequence (Q99500 whole entry): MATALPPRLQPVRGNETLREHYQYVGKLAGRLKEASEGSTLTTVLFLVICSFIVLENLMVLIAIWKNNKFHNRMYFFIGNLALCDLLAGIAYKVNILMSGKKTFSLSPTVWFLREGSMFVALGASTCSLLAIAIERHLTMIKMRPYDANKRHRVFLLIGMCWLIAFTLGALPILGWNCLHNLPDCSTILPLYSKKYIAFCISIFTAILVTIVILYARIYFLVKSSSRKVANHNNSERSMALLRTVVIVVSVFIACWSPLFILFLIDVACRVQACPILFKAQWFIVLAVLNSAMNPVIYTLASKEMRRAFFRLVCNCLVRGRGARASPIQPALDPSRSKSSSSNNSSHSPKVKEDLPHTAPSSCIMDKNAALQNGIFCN
Chain of hS1PR2 (recombinant human S1P2 receptor) (O95136 whole entry): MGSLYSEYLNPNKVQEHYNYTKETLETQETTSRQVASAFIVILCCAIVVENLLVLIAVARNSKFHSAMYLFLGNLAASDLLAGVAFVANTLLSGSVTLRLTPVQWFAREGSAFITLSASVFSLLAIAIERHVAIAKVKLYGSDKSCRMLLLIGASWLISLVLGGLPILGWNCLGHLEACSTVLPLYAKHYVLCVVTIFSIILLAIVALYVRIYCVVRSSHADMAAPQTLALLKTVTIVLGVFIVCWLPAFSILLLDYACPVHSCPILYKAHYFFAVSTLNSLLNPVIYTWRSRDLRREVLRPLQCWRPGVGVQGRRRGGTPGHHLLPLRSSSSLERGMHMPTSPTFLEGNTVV
T2 sequence (P21453 whole entry): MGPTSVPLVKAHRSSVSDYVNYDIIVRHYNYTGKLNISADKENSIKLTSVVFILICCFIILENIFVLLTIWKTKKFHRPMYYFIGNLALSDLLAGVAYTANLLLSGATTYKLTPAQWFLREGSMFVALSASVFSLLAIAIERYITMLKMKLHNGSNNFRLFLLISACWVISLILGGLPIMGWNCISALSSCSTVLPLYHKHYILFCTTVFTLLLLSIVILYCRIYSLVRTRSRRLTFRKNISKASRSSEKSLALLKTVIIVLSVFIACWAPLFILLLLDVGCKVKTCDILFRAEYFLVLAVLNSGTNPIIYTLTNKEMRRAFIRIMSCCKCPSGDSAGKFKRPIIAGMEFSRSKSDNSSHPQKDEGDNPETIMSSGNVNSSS

EC50 (human S1PR3): < 5.01 µM
EC50 [1]: < 5.01 µM
EC50 (human S1PR1): < 5.01 µM
SMILES: CCc1cccc(Cl)c1COc1ccc2c(c1)CC[C@@]21CN(CCC(=O)O)CCO1 [Compound 1a, (S)-3-(5-((2-chloro-6-ethylbenzyl)oxy)-2,3-dihydrospiro[indene-1,2′-morpholin]-4′-yl)propanoic acid]
